Laboratory results reported in the NIST ThermoML archive (doi:10.1021/acs.jced.9b00540).
± gives the expanded uncertainty stated by the source.

Assay: xn = mol fraction of the nth substance listed
Details: Liquid

CCOC(F)(C(F)(F)C(F)(F)C(F)(F)F)C(F)(C(F)(F)F)C(F)(F)F (stereo not given) [2-trifluoromethyl-3-ethoxydodecafluorohexane] + CC(C)OC(C)C
viscosity [mPa·s]
Details	x1 = 0.25	x1 = 0.375	x1 = 0.5	x1 = 0.625	x1 = 0.75	x1 = 1
313.15 K, 100000 kPa, Falling or rolling sphere viscometry	–	–	–	–	2.663 ± 0.059	4.307 ± 0.096
333.15 K, 100 kPa, Capillary tube (Ostwald / Ubbelohde) method	0.311 ± 0.007	0.356 ± 0.008	0.416 ± 0.009	0.486 ± 0.01	0.574 ± 0.012	0.739 ± 0.016
333.15 K, 20000 kPa, Falling or rolling sphere viscometry	0.393 ± 0.009	0.488 ± 0.011	0.56 ± 0.012	0.644 ± 0.014	0.754 ± 0.017	1.032 ± 0.023
333.15 K, 40000 kPa, Falling or rolling sphere viscometry	0.491 ± 0.011	0.604 ± 0.013	0.707 ± 0.015	0.826 ± 0.018	0.982 ± 0.022	1.41 ± 0.031
333.15 K, 60000 kPa, Falling or rolling sphere viscometry	0.595 ± 0.013	0.735 ± 0.016	0.875 ± 0.019	1.035 ± 0.023	1.252 ± 0.027	1.87 ± 0.041
333.15 K, 80000 kPa, Falling or rolling sphere viscometry	0.706 ± 0.015	0.884 ± 0.019	1.067 ± 0.023	1.277 ± 0.028	1.574 ± 0.034	2.427 ± 0.053
333.15 K, 100000 kPa, Falling or rolling sphere viscometry	0.822 ± 0.018	1.051 ± 0.023	1.283 ± 0.028	1.557 ± 0.034	1.958 ± 0.043	3.105 ± 0.068
353.15 K, 100 kPa, Capillary tube (Ostwald / Ubbelohde) method	–	–	–	–	0.465 ± 0.01	0.576 ± 0.012
353.15 K, 20000 kPa, Falling or rolling sphere viscometry	0.34 ± 0.007	0.399 ± 0.009	0.442 ± 0.01	0.499 ± 0.011	0.591 ± 0.013	0.799 ± 0.018
353.15 K, 40000 kPa, Falling or rolling sphere viscometry	0.428 ± 0.009	0.508 ± 0.011	0.578 ± 0.013	0.66 ± 0.015	0.773 ± 0.017	1.084 ± 0.024
353.15 K, 60000 kPa, Falling or rolling sphere viscometry	0.517 ± 0.011	0.622 ± 0.014	0.724 ± 0.016	0.836 ± 0.018	0.997 ± 0.022	1.418 ± 0.031
353.15 K, 80000 kPa, Falling or rolling sphere viscometry	0.61 ± 0.013	0.739 ± 0.016	0.879 ± 0.019	1.025 ± 0.022	1.245 ± 0.027	1.808 ± 0.04
353.15 K, 100000 kPa, Falling or rolling sphere viscometry	0.706 ± 0.015	0.855 ± 0.019	1.037 ± 0.022	1.223 ± 0.027	1.504 ± 0.033	2.265 ± 0.049
